Series [1] is described as follows: Distribution of EMD386088 in rats' brain (LC/MS/MS, non-compartmental). The format is in vivo, rat. On the procedure:
Blood samples were collected at 0 min (predose), 5 min, 15 min, 30 min, 60 min, 120 min, and 240 min after injections. The blood was collected from right ventricle under anesthesia using a mixture of ketamine (50 mg/kg)/xylasine (8 mg/kg) in the ratio of 3:1, and 0.025 mL of a mixture for 10 g body weight was injected i.p. 10 min before planned blood collection. Blood and brain samples were collected under general anesthesia induced by i.p. injections of ketamine (50 mg/kg)/xylasine (8 mg/kg). The blood samples were taken into heparinized tubes, immediately centrifuged at 3500 rpm for 10 min, and plasma was collected. After the blood was drawn, the rat’s spinal cord was cut and the cerebral tissue was removed, and after dissection washed in PBS saline. The brain and plasma samples were immediately frozen at − 80 °C for LC/MS/MS analysis.
Pharmacokinetic parameters were calculated by a non-compartmental approach from the average concentration values, using Phoenix WinNonlin software (Certara, Princeton, NJ 08540 USA). First order elimination rate constant (λz) was calculated by linear regression of time versus log concentration.
The quantification of studied compounds in plasma and brain samples was done using HPLC Agilent 1100 system (Agilent Technologies, Waldbronn, Germany) coupled to the triple quadrupole mass spectrometer API 2000 (ABSciex, Framingham, Massachusetts, USA) equipped with an electrospray ion source. After preparation, the samples were injected (20 μL) onto XBridge C18 (2.1 mm × 30 mm, 3.5 μm, Waters, Milford, Massachusetts, USA) analytical column. The mobile phase consisted of ACN with 0.1% formic acid (A) and water with 0.1% formic acid (B) were delivered in gradient elution started with 90% of eluent B, increasing during 2 min to 90% of eluent A, maintained to 3 min, and then returned during 5 min to 90% of eluent B, and maintained 90% of eluent B during 5 min at a flow rate of 300 μL/min. The total time of analysis was 15 min. Electrospray ionization process was performed in positive ionization and the data acquisition was carried out in multiple reaction monitoring mode (MRM) for EMD386088 and its internal standard (nebivolol). The ion spray source settings were as follows: spray voltage: 5 kV, heater temperature: 350 °C, curtain gas: 15 psi, source gas 1: 35 psi, source gas 2: 10 psi. The ions measured were m/z 247.3 (Q1) and m/z 168.2 (Q3) for EMD386088, and m/z 406.2 (Q1) and m/z 151.1 (Q3) for IS.
A sample volume of 50 μL of plasma or brain homogenate was transferred into the clean Eppendorf tube and spiked with 5 μL of IS solution (1 μg/mL) obtaining the final concentration of 100 ng/mL. After 5 min of mixing (1500 rpm), proteins were precipitated using 150 μL ACN. After 10 min of samples shaking (1500 rpm), the incubation step was performed (10 min, 4 °C). Next, samples were centrifuged (10,000 rpm, 10 min, 4 °C) and the supernatant was transferred into chromatographic vial for LC/MS/MS analysis. The brain homogenate was prepared maintaining the tissue: phosphate-buffered saline (PBS) at a ratio of 1:5. The homogenization was carried out employing IKA® T10 Basic ULTRA-TURRAX disperser (IKA Werke GmbH & Co. KG, Staufen, Germany). After homogenization, 50 μL of sample was collected for further preparation. All samples were stored on ice during the preparation process.

Another series deals with T1, recombinant human CYP2D6 (Homo sapiens, UniProt P10635).
T1 construct: purchased Promega (Madison, WI, USA)
T1 sequence (P10635 whole entry): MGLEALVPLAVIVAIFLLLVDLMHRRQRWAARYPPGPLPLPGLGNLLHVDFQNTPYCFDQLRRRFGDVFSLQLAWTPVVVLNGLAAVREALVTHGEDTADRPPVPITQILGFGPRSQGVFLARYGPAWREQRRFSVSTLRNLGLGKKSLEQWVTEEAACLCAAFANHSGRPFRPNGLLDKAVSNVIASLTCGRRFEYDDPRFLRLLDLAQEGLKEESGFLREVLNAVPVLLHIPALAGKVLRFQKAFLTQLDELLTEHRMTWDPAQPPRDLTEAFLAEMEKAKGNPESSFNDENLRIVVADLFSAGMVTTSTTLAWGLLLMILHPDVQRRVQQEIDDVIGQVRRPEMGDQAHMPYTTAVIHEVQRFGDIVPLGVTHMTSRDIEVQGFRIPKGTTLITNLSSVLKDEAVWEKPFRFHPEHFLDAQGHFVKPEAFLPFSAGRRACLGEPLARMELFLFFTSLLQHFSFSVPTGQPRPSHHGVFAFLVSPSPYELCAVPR
Nature of the series: Luminescent CYP2D6 P450-Glo assay. The settings on record: read-out: IC 50 CYP2D6. The format is in vitro ADME.

A further series has as its system dopamine D2. Also on record: method as in Jastrzębska-Więsek et al. [2013]. The note with it: ref Jastrzębska-Więsek et al. [2013]; cited from earlier work.
For the next series, the system named is opioid μ receptors. On the set-up: method as in Jastrzębska-Więsek et al. [2013]. The settings on record: ref Jastrzębska-Więsek et al. [2013]; cited from earlier work.
[2] abbreviates: rat brain, EMD386088 2.5 mg/kg i.p. jointly with imipramine (IMI) 15 mg/kg i.p.
Where [3] appears, read: rat, brain, ip, 2.5 mg/kg, rat brain, EMD386088 2.5 mg/kg i.p. alone.
The mark [4] stands for this setting: rat, brain, ip, 2.5 mg/kg, rat brain, EMD386088 2.5 mg/kg i.p. jointly with imipramine (IMI) 15 mg/kg i.p.
Where [5] appears, read: rat, brain, ip, 5 mg/kg, rat brain, EMD386088 5 mg/kg i.p. alone.

Where two headings read alike, the source gives them in different places.

Method for recombinant human CYP2D6: The enzymatic reactions were performed in white polystyrene, flat-bottom Nunc™ MicroWell™ 96-Well Microplates (Thermo Scientific, Waltham, MA USA). The luminescence signal was measured with a microplate reader in luminescence mode (EnSpire, PerkinElmer, Waltham, MA USA).

Consider `Cc1[nH]c2ccc(Cl)cc2c1C1=CCNCC1.Cl` [EMD386088, 5-chloro-2-methyl-3-(1,2,3,6-tetrahydro-4-pyridinyl)-1H-indole hydrochloride], for which the Tmax in series [1] (ip, rat brain, EMD386088 2.5 mg/kg i.p. alone, read-out: t max (converted)) was 2 h; in series [1] (ip, rat brain, EMD386088 5 mg/kg i.p. alone, read-out: t max (converted)), 2 h; in series [1] (setting [2]), 2 h; in series [1] (rat, brain, ip, rats, after i.p. administration, read-out: t max in the brain (converted)), 2 h. Besides, the AUC0 → t is reported as 41,936.2 ng ⋅ min/g in series [1] (rat brain, EMD386088 2.5 mg/kg i.p. alone); 56,428.6 ng ⋅ min/g in series [1] (setting [2]); 84,462.8 ng ⋅ min/g in series [1] (rat brain, EMD386088 5 mg/kg i.p. alone). Further, the Cmax in series [1] (setting [3]) came to 321 ng/g; in series [1] (setting [4]), 277 ng/g; in series [1] (setting [5]), 640 ng/g. Moreover, the mean residence time (MRT) in series [1] (setting [3]) was 1.9 h; in series [1] (setting [4]), 2.12 h; in series [1] (setting [5]) it was 1.91 h. Also, the Kp in series [1] (rat, brain, ip, rats, EMD386088 2.5 mg/kg i.p. alone, calculated on the basis of AUC0 → t values, read-out: brain/plasma ratio) was about 19. Further, the “decrease in penetration on coadministration with imipramine” value in series [1] (rats, EMD386088 with imipramine vs alone) was 2.5 fold. For the same molecule, the IC50 on recombinant human CYP2D6 is 2250 nM. The “affinity for dopamine D2” value with dopamine D2 is on record as “no affinity”. Further, in the series on opioid μ receptors, the “affinity for opioid μ receptors” value is “no affinity”.

One may read the Cmax as the highest concentration seen after dosing. Usually MRT stands for a mean duration of stay, worked out from the concentration-time curve.

These data come from paper PMC5748433, “Study on the effect of EMD386088, a 5-HT6 receptor partial agonist, in enhancing the anti-immobility action of some antidepressants in rats” (Naunyn-Schmiedeberg's Archives of Pharmacology, 2017).
